Experimental data reported in PubChem BioAssay AID1963854 (Molecular Pharmacology Branch, DTP, NCI, 2024).

Test system: 186277-243-T-J2-PDC complex spheroid viability
Experiment: Anticancer human tumor 186277-243-T-J2-PDC patient-derived colon adenocarcinoma cell line growth inhibition [POLQ]
Settings: for IC50: curve of first compound; for viability, T/C: stronger effect = lower value
Procedure, shortened: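 Patient-derived tumour cells were co-cultured with HUVEC and mesenchymal stem cells as multicellular spheroids at 37 °C. They were treated with POLQ inhibitors (novobiocin, ART-558, RP6685) alone or combined with other agents. Top concentrations were at or near clinical Cmax (otherwise 10 microM; SN-38 at 1 microM), decreasing in half-log steps.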

[1] = second compound 0.0316 µM, first compound 0.0316 µM
[2] = second compound 0.0316 µM, first compound 0.1 µM
[3] = second compound 0.0316 µM, first compound 0.316 µM
[4] = second compound 0.0316 µM, first compound 1 µM
[5] = second compound 0.0316 µM, first compound 3.16 µM
[6] = second compound 0.0316 µM, first compound 10 µM
[7] = second compound 0.1 µM, first compound 0.0316 µM
[8] = second compound 0.1 µM, first compound 0.1 µM
[9] = second compound 0.1 µM, first compound 0.316 µM
[10] = second compound 0.1 µM, first compound 1 µM
[11] = second compound 0.1 µM, first compound 3.16 µM
[12] = second compound 0.1 µM, first compound 10 µM
[13] = second compound 0.316 µM, first compound 0.0316 µM
[14] = second compound 0.316 µM, first compound 0.1 µM
[15] = second compound 0.316 µM, first compound 0.316 µM
[16] = second compound 0.316 µM, first compound 1 µM
[17] = second compound 0.316 µM, first compound 3.16 µM
[18] = second compound 0.316 µM, first compound 10 µM
[19] = second compound 1 µM, first compound 0.0316 µM
[20] = second compound 1 µM, first compound 0.1 µM
[21] = second compound 1 µM, first compound 0.316 µM
[22] = second compound 1 µM, first compound 1 µM
[23] = second compound 1 µM, first compound 3.16 µM
[24] = second compound 1 µM, first compound 10 µM
[25] = second compound 3.16 µM, first compound 0.0316 µM
[26] = second compound 3.16 µM, first compound 0.1 µM
[27] = second compound 3.16 µM, first compound 0.316 µM
[28] = second compound 3.16 µM, first compound 1 µM
[29] = second compound 3.16 µM, first compound 3.16 µM
[30] = second compound 3.16 µM, first compound 10 µM
[31] = second compound 10 µM, first compound 0.0316 µM
[32] = second compound 10 µM, first compound 0.1 µM
[33] = second compound 10 µM, first compound 0.316 µM
[34] = second compound 10 µM, first compound 1 µM
[35] = second compound 10 µM, first compound 3.16 µM
[36] = second compound 10 µM, first compound 10 µM
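Note: spheroids exposed to compounds for seven days.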
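Throughout, for viability, T/C: 100% = DMSO vehicle control viability.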

In the case of `CCCS(=O)(=O)Nc1ccc(F)c(C(=O)c2c[nH]c3ncc(-c4ccc(Cl)cc4)cc23)c1F` + Cc1cccc(N(C)C(=O)C2C(O)CCN2c2nc(C)cc(C(F)(F)F)c2C#N)c1, the IC50 (second compound 0.0316 µM) is reported as > 10 µM, the IC50 (second compound 0.1 µM) is reported as > 10 µM and the IC50 (second compound 0.316 µM) is reported as > 10 µM. The IC50 (second compound 1 µM) was > 10 µM, the IC50 (second compound 3.16 µM) was > 10 µM and the IC50 (second compound 10 µM) was > 10 µM. For the same compound, the viability, T/C [1] was 83%, the viability, T/C [2] was 101% and the viability, T/C [3] was 80.6%. The viability, T/C [4] was 95.6%, the viability, T/C [5] was 82.8% and the viability, T/C [6] was 58%. The viability, T/C [7] was 87.7%, the viability, T/C [8] was 91.2% and the viability, T/C [9] was 79.3%. For the same compound, the viability, T/C [10] was 92.4%, the viability, T/C [11] was 76.8% and the viability, T/C [12] was 56.8%. It also gave a viability, T/C [13] of 85.9%, a viability, T/C [14] of 108% and a viability, T/C [15] of 87%. The viability, T/C [16] was 88.2%, the viability, T/C [17] was 77.8% and the viability, T/C [18] was 52.8%. For the same compound, the viability, T/C [19] was 106%, the viability, T/C [20] was 89.3% and the viability, T/C [21] was 99.9%. It also gave a viability, T/C [22] of 79.7%, a viability, T/C [23] of 89.7% and a viability, T/C [24] of 51%. For the same compound, the viability, T/C [25] was 115%, the viability, T/C [26] was 88% and the viability, T/C [27] was 83.5%. It also gave a viability, T/C [28] of 83.4%, a viability, T/C [29] of 77.3% and a viability, T/C [30] of 56.9%. For the same compound, the viability, T/C [31] was 93.4%, the viability, T/C [32] was 86.9% and the viability, T/C [33] was 93.2%. The viability, T/C [34] was 83.9%, the viability, T/C [35] was 88.1% and the viability, T/C [36] was 56.1%.

In the case of `C=CC(=O)N1CCN(c2nc(=O)n(-c3c(C)ccnc3C(C)C)c3nc(-c4c(O)cccc4F)c(F)cc23)C(C)C1` (centres undefined) + Cc1cccc(N(C)C(=O)C2C(O)CCN2c2nc(C)cc(C(F)(F)F)c2C#N)c1, the IC50 (second compound 0.0316 µM) is reported as > 10 µM, the IC50 (second compound 0.1 µM) is reported as > 10 µM and the IC50 (second compound 0.316 µM) is reported as > 10 µM. For the same compound, the IC50 (second compound 1 µM) was > 10 µM, the IC50 (second compound 3.16 µM) was > 10 µM and the IC50 (second compound 10 µM) was > 10 µM. The viability, T/C [1] was 92.8%, the viability, T/C [2] was 101% and the viability, T/C [3] was 82.2%. For the same compound, the viability, T/C [4] was 90.9%, the viability, T/C [5] was 99.5% and the viability, T/C [6] was 103%. For the same compound, the viability, T/C [7] was 106%, the viability, T/C [8] was 98.6% and the viability, T/C [9] was 103%. For the same compound, the viability, T/C [10] was 84.7%, the viability, T/C [11] was 107% and the viability, T/C [12] was 104%. For the same compound, the viability, T/C [13] was 90.4%, the viability, T/C [14] was 91.5% and the viability, T/C [15] was 102%. It also gave a viability, T/C [16] of 99.5%, a viability, T/C [17] of 112% and a viability, T/C [18] of 102%. For the same compound, the viability, T/C [19] was 99.8%, the viability, T/C [20] was 108% and the viability, T/C [21] was 98.6%. It also gave a viability, T/C [22] of 96.2%, a viability, T/C [23] of 108% and a viability, T/C [24] of 101%. For the same compound, the viability, T/C [25] was 106%, the viability, T/C [26] was 99% and the viability, T/C [27] was 84%. The viability, T/C [28] was 106%, the viability, T/C [29] was 111% and the viability, T/C [30] was 103%. It also gave a viability, T/C [31] of 97.9%, a viability, T/C [32] of 106% and a viability, T/C [33] of 108%. The viability, T/C [34] was 102%, the viability, T/C [35] was 97.3% and the viability, T/C [36] was 95.9%.
